Where “and” joins values, the source holds several entries; their conditions need not be identical. Identical values can stand only once. Entries after “also recorded” stand apart in the source; their conditions may differ.
Assays:
IFN-α signaling = assay: HEK-BLUE IFN-α/β SEAP reporter assay; format: cell-based; conditions: HEK-BLUE IFN-α/β cells, 200 U IFN-α, 24 hours
non-JAK kinases = assay: Kinome analysis; format: biochemical; conditions: 100 nM
TYK2 [1] = target: T1, TYK2 (Homo sapiens, UniProt P29597); assay: TR-FRET STAT3 phosphorylation assay, TYK2; conditions: read-out: IC50 TYK2, 10 μM ATP, GFP-STAT3
JAK3 [2] = target: T2, JAK3 (Homo sapiens, UniProt P52333); assay: 33P-ATP kinase assay, JAK3; format: biochemical; conditions: read-out: IC50 JAK3; 33P-ATP assay, 10 μM ATP
T2 sequence (P52333 1-1124): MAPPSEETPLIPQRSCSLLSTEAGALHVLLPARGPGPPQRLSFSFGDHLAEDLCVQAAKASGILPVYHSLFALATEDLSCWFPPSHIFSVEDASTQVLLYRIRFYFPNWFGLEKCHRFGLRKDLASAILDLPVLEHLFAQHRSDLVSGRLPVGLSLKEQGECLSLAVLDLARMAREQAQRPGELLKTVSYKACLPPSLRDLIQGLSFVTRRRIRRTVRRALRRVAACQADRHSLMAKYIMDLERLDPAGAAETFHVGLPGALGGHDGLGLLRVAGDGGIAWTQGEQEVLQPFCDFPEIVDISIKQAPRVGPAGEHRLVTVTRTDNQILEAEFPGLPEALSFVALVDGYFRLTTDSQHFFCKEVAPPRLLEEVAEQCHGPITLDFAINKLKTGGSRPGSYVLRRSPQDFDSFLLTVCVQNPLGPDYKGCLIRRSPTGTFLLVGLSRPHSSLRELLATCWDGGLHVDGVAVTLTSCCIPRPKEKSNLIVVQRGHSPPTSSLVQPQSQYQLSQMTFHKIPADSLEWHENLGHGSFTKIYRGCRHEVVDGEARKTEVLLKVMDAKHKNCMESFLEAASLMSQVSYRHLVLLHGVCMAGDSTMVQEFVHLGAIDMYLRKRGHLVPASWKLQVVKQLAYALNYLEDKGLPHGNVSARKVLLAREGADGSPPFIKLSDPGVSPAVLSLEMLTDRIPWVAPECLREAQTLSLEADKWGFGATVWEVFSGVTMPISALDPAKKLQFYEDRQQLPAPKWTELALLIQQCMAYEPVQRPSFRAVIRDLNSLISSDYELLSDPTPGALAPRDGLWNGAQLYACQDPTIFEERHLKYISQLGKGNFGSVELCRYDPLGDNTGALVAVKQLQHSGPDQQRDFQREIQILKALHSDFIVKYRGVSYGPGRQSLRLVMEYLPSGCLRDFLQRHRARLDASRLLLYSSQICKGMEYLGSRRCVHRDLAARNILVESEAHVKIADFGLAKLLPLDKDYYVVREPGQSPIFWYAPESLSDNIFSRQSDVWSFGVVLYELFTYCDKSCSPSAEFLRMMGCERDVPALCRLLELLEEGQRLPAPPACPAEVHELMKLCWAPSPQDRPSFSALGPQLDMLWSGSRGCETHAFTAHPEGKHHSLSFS

JAK3 [3] = target: T2, JAK3; assay: IL-2-induced pSTAT5 in PBMCs; format: cell-based; conditions: read-out: IC50 JAK3, pSTAT (primary cells), IL-2, pSTAT5
TYK2 [4] = target: T1, TYK2; assay: IL-12-induced pSTAT4 in primary CD4+ cells; format: cell-based; conditions: read-out: IC50 TYK2, pSTAT (primary cells), IL-12, pSTAT4
Caco-2 permeability = format: in vitro ADME; conditions: 5 μM, pH 7.4
IL-22 signaling [5] = assay: IL-22-induced Serum Amyloid A; format: in vivo, mouse; conditions: 50 mg/kg p.o., C57BL/6 mice, 10 μg IL-22, 6 hours, vs vehicle
IL-12 signaling = assay: IL-12-induced IFN-γ production in PBMCs; format: cell-based; conditions: human PBMCs, 10 ng/mL IL-12, 24 hours
IL-22 signaling [6] = assay: IL-22-induced pSTAT3 in HT-29 cells; format: cell-based, human
CD4+ T cells = assay: CD4+ T cell proliferation; format: cell-based, mouse; conditions: anti-CD28/anti-TCR, 4 days
[7] = system: imiquimod-induced dermatitis; assay: Imiquimod-induced psoriasis-like dermatitis; format: in vivo
JAK1 [8] = target: T3, JAK1 (Homo sapiens, UniProt P23458); assay: IL-6-induced pSTAT3 in TF-1 cells; format: cell-based; conditions: read-out: IC50 JAK1, pSTAT (cell lines), IL-6, pSTAT3
TYK2 [9] = target: T1, TYK2; assay: IL-12-induced pSTAT4 in NK-92 cells; format: cell-based; conditions: read-out: IC50 TYK2, pSTAT (cell lines), IL-12, pSTAT4
JAK3 [10] = target: T2, JAK3; assay: TR-FRET STAT3 phosphorylation assay, JAK3; conditions: read-out: IC50 JAK3, 10 μM ATP, GFP-STAT3
TYK2 [11] = target: T1, TYK2; assay: 33P-ATP kinase assay, TYK2; format: biochemical; conditions: read-out: IC50 TYK2; 33P-ATP assay, 10 μM ATP
JAK1 [12] = target: T3, JAK1; assay: IL-6-induced pSTAT3 in primary CD4+ cells; format: cell-based; conditions: read-out: IC50 JAK1, pSTAT (primary cells), IL-6, pSTAT3
JAK1 [13] = target: T3, JAK1; assay: 33P-ATP kinase assay, JAK1; format: biochemical; conditions: read-out: IC50 JAK1; 33P-ATP assay, 10 μM ATP
[14] = In vivo pharmacokinetics in CD-1 mice; design: species or system mouse; conditions: for Cmax or Co: CD-1 mice
JAK1 [15] = target: T3, JAK1; assay: TR-FRET STAT3 phosphorylation assay, JAK1; conditions: read-out: IC50 JAK1, 10 μM ATP, GFP-STAT3
Splenic CD4+ cells = assay: T helper cell development; format: cell-based, mouse; conditions: 1 μM, 4 days; for IFN-γ production in Th1 cells: Th1 conditions; for IL-4 in Th2 cultures: Th2 conditions; for Foxp3+ cells under Th17-skewing conditions / percent of IL-17+ cells: Th17-skewing conditions; for development of iTregs: iTreg conditions
[16] = Mouse liver microsome stability; format: in vitro ADME; conditions: 0.5 μM
IL-12 signaling in vivo = assay: IL-12/IL-18-induced serum IFN-γ in vivo; design: species or system mouse; conditions: 60 mg/kg, 30 minutes prior to IL-12/IL-18, vs vehicle
[17] = 50 mg/kg p.o. twice daily, back skin
[18] = 50 mg/kg, qPCR, vs wild type and TYK2 mutant mice

T1 sequence (P29597 whole entry): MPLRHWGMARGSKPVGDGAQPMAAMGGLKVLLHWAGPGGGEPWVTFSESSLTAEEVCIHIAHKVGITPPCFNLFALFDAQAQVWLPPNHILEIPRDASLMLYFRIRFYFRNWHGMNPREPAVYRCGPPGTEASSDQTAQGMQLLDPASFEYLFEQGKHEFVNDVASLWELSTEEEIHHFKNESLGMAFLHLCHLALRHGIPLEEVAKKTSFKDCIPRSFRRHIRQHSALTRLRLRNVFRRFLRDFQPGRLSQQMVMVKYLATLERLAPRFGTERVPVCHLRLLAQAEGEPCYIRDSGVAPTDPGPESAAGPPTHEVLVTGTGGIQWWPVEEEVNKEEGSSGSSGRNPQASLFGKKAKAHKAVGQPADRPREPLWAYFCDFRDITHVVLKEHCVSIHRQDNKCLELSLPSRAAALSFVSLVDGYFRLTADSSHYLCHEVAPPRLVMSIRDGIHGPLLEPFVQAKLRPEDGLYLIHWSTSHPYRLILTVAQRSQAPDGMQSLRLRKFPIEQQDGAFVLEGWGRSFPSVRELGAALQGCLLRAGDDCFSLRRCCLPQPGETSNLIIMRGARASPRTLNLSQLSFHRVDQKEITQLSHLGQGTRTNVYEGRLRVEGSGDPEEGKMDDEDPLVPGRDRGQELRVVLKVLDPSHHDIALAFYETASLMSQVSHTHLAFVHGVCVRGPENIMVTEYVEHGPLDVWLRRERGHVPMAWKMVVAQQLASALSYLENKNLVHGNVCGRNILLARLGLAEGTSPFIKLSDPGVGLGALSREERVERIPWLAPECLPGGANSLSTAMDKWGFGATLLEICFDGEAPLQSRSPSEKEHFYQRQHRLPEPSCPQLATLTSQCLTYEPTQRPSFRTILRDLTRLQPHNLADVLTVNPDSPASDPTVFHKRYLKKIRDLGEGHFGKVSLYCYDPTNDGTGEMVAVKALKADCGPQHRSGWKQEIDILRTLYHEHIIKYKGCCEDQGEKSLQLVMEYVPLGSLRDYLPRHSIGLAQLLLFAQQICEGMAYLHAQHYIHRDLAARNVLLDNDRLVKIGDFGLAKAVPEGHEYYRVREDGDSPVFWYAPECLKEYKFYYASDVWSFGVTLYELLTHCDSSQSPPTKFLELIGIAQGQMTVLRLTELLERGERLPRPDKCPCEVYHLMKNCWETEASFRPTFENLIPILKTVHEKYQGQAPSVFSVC
T3 sequence (P23458 whole entry): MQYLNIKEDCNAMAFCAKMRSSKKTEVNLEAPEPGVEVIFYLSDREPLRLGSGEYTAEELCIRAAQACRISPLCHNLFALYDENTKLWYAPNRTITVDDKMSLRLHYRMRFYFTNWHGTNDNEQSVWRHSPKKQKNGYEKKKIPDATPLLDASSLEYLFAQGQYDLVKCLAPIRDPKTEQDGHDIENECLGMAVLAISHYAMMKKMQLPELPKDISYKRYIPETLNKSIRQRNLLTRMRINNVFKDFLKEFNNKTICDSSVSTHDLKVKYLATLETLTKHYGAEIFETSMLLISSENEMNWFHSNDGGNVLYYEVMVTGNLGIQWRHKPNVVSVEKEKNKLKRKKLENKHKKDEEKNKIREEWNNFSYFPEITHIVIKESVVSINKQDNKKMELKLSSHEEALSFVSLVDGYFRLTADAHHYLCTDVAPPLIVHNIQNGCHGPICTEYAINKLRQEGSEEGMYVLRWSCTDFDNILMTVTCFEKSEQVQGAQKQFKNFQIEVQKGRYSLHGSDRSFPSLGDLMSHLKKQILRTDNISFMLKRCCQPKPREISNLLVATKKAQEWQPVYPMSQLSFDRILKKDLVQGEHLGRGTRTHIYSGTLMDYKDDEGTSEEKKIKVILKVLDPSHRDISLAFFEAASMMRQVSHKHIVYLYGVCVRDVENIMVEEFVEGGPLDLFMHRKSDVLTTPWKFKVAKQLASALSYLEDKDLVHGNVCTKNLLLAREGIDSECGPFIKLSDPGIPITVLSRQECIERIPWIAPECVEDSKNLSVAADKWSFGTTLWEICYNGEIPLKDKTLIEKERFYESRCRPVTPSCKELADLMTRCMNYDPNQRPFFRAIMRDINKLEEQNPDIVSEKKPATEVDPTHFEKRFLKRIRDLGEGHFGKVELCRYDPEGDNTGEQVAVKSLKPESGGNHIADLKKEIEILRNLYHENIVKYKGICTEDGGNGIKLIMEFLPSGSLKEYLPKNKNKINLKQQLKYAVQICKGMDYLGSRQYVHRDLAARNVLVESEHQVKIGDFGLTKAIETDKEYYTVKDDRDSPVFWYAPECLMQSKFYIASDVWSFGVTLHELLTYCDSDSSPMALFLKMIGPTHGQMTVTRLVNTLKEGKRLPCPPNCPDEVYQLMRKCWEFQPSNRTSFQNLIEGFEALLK

## NC(=O)c1nc(-c2c(F)cccc2Cl)oc1Nc1ccc(C(=O)N2CCOCC2)cc1 [SAR-20347]
IFN-α signaling
  inhibition of SEAP production: dose-dependently inhibited the production of SEAP
non-JAK kinases
  inhibitory activity towards non-JAK kinases: comparable to the previously established values for tofacitinib and ruxolitinib
TYK2 [1]
  IC50: 13 ± 3 nM
JAK3 [2]
  IC50: 41 ± 11 nM
JAK3 [3]
  IC50: 1610 nM
TYK2 [4]
  IC50: 107 nM
Caco-2 permeability
  Caco-2 AB: BA: 1.3
  Caco-2 permeability: good permeability
IL-22 signaling [5]
  decrease of SAA levels: 45%
IL-12 signaling
  inhibition of IL-12 induced IFN-γ production: dose-dependent inhibition of IFN-γ production; also recorded: complete inhibition
IL-22 signaling [6]; 10 μM
  inhibition of STAT3 phosphorylation: 94%
IL-22 signaling [6]; read-out: IC50 IL-22-induced pSTAT3, 10 ng/mL IL-22, 15 minutes
  IC50: 148 nM
CD4+ T cells
  CD4+ T cell proliferation: inhibited proliferation to a comparable extent
CD4+ T cells; two-way ANOVA
  doses significantly decreasing proliferation compared to 0 μM (DMSO): ≥ 0.315 µM
[7]; 50 mg/kg p.o. twice daily
  gross toxicity: no gross toxicity
[7]; [17]
  Ki67 staining: significantly reduced
  histological score: significantly reduced
  keratinocyte cell numbers: significantly reduced
[7]; 50 mg/kg p.o. twice daily, vs TYK2 mutant or vehicle-treated wild type mice
  scaling and redness (clinical score): markedly reduced scaling and redness
[7]; 50 mg/kg, qPCR
  IL-2 expression levels in the skin: did not affect
  IL-10 expression levels in the skin: did not affect
  S100A8 gene expression in the skin: significantly decreased
  S100A9 gene expression in the skin: significantly decreased
  defensin β1 gene expression in the skin: significantly decreased
[7]; [18]
  IL-6 mRNA expression in the skin: significantly reduced expression
  IL-17 mRNA expression in the skin: significantly reduced expression
  IL-20 mRNA expression in the skin: significantly reduced expression
  IL-22 mRNA expression in the skin: significantly reduced expression
  IL-23 mRNA expression in the skin: significantly reduced expression
  TNF mRNA expression in the skin: significantly reduced expression
[7]; 50 mg/kg, skin IHC
  IL-17 production (average signal intensity): significantly reduced IL-17 production
  Vγ3 expression (average signal intensity): significantly lower
  number of CD4+ cells in skin: not affected
JAK1 [8]
  IC50: 345 nM
TYK2 [9]
  IC50: 126 nM
JAK3 [10]
  IC50: 1440 ± 630 nM
TYK2 [11]
  IC50: 0.6 ± 0.1 nM
JAK1 [12]
  IC50: 423 nM
JAK1 [13]
  IC50: 23 ± 19 nM
[14]; 1 mg/kg (i.v.)
  AUC0-8h: 305 ng/h/mL
  Cl: 52 mL/min/kg and 52.1 mL/min/kg
  T1/2: 162 min
  Cmax or Co: 433 ng/mL
[14]; 10 mg/kg (p.o.)
  AUC0-8h: 2131 ng/h/mL
  F: 69.8%
  T1/2: 144 min
  Tmax: 24 min
  Cmax or Co: 1343 ng/mL
[14]; 50 mg/kg (p.o.)
  AUC0-8h: 18740 ng/h/mL
  T1/2: 168 min
  Tmax: 30 min
  Cmax or Co: 6273 ng/mL
[14]; mice
  maximum serum concentration (Tmax): 30 min
JAK1 [15]
  IC50: 59 ± 43 nM
Splenic CD4+ cells
  IFN-γ production in Th1 cells: potently blocked IFN-γ production
  IL-4 in Th2 cultures: capable of reducing IL-4
  Foxp3+ cells under Th17-skewing conditions: dramatic increase in Foxp3+ cells
  percent of IL-17+ cells: reduces the percent of IL-17+cells
  development of iTregs: did not alter the development of iTregs
[16]
  clearance rate in mouse liver microsomes: 26 µL/min/mg
  half-life in mouse liver microsomes: 52.7 min
IL-12 signaling in vivo
  inhibition of production of IFN-γ in the serum: 91%

## C[C@@H]1CCN(C(=O)CC#N)C[C@@H]1N(C)c1ncnc2[nH]ccc12 [Tofacitinib, reference compound]
Splenic CD4+ cells
  IFN-γ production in Th1 cells: potently blocked IFN-γ production
  IL-4 in Th2 cultures: capable of reducing IL-4
  Foxp3+ cells under Th17-skewing conditions: no effect on Th17 skewing or change in the number of Foxp3+ cells
  percent of IL-17+ cells: no effect on Th17 skewing
  development of iTregs: significantly reduced iTreg development

From article PMC4170002 (Journal of immunology (Baltimore, Md. : 1950), 2014)
